How the values were obtained:
[1] = test system: Sprague-Dawley rat hepatocytes; test: MetID determination in rat hepatocytes; format: in vitro ADME
Description: (§1) Cryopreserved human and Sprague-Dawley rat hepatocytes were thawed in a 37° C. water bath. […] Samples were obtained from separate plates for each time point during the incubation. At each sampling time, the plates were removed from the incubator, quenched by adding 100 μL cold acetonitrile, and placed in an ice bath until centrifugation at 4,000 rpm for 30 minutes at 4° C. Supernatants were stored at or below −70° C. until LC-MS/MS analysis could be conducted. The liquid chromatography system used was Agilent 1100 Autosampler, Binary Pump, DAD and Column Enclosure. Tandem mass spectrometry was conducted using a Thermo DECA XP MAX Ion Trap Mass Spectrometer. The ion source was Electrospray (+) and the LC column used was a Varian, Polaris 5 C18-A (250×2.1 mm, 5 micron) column.
(§2) Metabolic pathways of metoclopramide and conjugates were determined in rat and human hepatocytes. N-dealkylation was the major metabolic pathway for metoclopramide in rats, and metabolism in human hepatocytes was minimal. […] FIG. 2 and FIG. 3 show the metabolic pathway of for mPEG1-N-metoclopramide and mPEG4-N-metoclopramide, respectively. […] In this figure, different metabolites for each conjugate are denoted with the “M” and correspond to the designation provided in the figure for a given conjugate. For example, metabolite M1 for mPEG1-N-metoclopramide in Table 6 corresponds to M1 in FIG. 2, metabolite M2 for mPEG4-N-metoclopramide in Table 6 corresponds to M2 in FIG. 3 and metabolite M3 mPEG8-N-metoclopramide in Table 6 corresponds to M3 in FIG. 4.

human hepatocytes = test: MetID determination in human hepatocytes; format: in vitro ADME
Description: as §1, §2

[2] = incubation of 10 μM mPEG4-N-metoclopramide, parent and its metabolites M (FIG. 3)
[3] = incubation of 10 μM mPEG8-N-metoclopramide, parent and its metabolites M (FIG. 4)

Row | % of Total Metabolism, Rat Hep 1 hr [1, 2] | % of Total Metabolism, Rat Hep 4 hr [1, 2] | % of Total Metabolism, Rat Hep 1 hr [1, 3] | % of Total Metabolism, Rat Hep 4 hr [1, 3] | % of Total Metabolism, Human Hep 1 hr (human hepatocytes; [3]) | % of Total Metabolism, Human Hep 4 hr (human hepatocytes; [3]) | % of Total Metabolism, Human Hep 4 hr (human hepatocytes; [2]) [%] | Compound
1 | trace | trace | 1% | 2.2% | – | – | – | CCN(CCO)CCNC(=O)c1cc(Cl)c(N)cc1OC [M6]
2 | 1.7% | 1.2% | 1.2% | 2.2% | trace | trace | – | CCN(CCNC(=O)c1cc(Cl)c(N)cc1OC)CCOCCO [M7]
3 | trace | 1.5% | 1.3% | 2.5% | trace | trace | – | CCN(CCNC(=O)c1cc(Cl)c(N)cc1OC)CCOCCOCCO [M8]
4 | 8.8% | 24.8% | Trace | 1.6% | trace | trace | 1.9 | CCN(CCNC(=O)c1cc(Cl)c(N)cc1OC)CCOCCOCCOCCO [M9]
5 | – | – | – | trace | – | – | – | CCN(CCO)CCNC(=O)c1cc(Cl)c(N)cc1OC [M10]
6 | – | – | Trace | 3.5% | – | – | – | CCN(CCNC(=O)c1cc(Cl)c(N)cc1OC)CCOCCO [M11]
7 | – | – | Trace | 0.7% | – | trace | – | CCN(CCNC(=O)c1cc(Cl)c(N)cc1OC)CCOCCOCCO [M12]
8 | – | – | 3.0% | 12.6% | – | 2.7% | – | CCN(CCNC(=O)c1cc(Cl)c(N)cc1OC)CCOCCOCCOCCO [M13]
9 | – | – | Trace | 2% | trace | trace | – | CCN(CCNC(=O)c1cc(Cl)c(N)cc1OC)CCOCCOCCOCCOCCO [M14]

— patent US10434181B2, “Oligomer-containing benzamide-based compounds” (Nektar Therapeutics, priority 2012, dated 2019)
